Experimental data reported in patent publication US20210047380A1, “A NEUROTROPHIC PEPTIDE FOR THE THERAPEUTIC TREATMENT OF NEURODEGENERATIVE AND/OR INFLAMMATORY DISEASES” (CONSIGLIO NAZIONALE DELLE RICERCHE, priority 2018, published 2021).

Tests used:
extracellular proteases = test: Permanence in conditioned culture medium of stimulated PC12 cells (Western blot), resistance to extracellular proteases; type: in vitro ADME; details: conditioned medium of rat PC12 cells, sampled at 0, 4, 8 and 24 hours post-stimulation
Experimental: (§1) (A) Representative photomicrograph of the results from the Western blot analysis performed on conditioned culture media of rat PC12 cells stimulated with hproNGF-A (upper panel) or mNGF (lower panel) for 24 hours. The samples examined were collected at time 0 and 4, 8 and 24 hours post-stimulation. (B) Representative photomicrographs of the immunolocalization of the tyrosine hydroxylase enzyme on brain tissue (locus coeruleus) sections taken from rats after intranasal administration of proNGFA or mNGF.
In order to assess the resistance of hproNGF-A and mature NGF to the action of extracellular proteases, rat pheochromocytoma cells (PC12) were stimulated with either of the two peptides. Samples collected from conditioned cell culture media at successive times (time zero; 4, 8 and 24 hours post-stimulation) were subjected to Western blot assay in order to verify the permanence of hproNGF-A and mNGF in the culture medium.

[1] = system: noradrenergic fibres in the locus coeruleus; test: Tyrosine hydroxylase immunolocalization in locus coeruleus after intranasal administration (central regulation of sympathetic activity); type: in vivo, rat; details: adult rats
Experimental: as §1
The present inventors also carried out experiments aimed at testing the effects of the action of NGF and the proNGF-A peptide on the central regulation of the neuronal sympathetic activity. In short, the NGF or proNGF-A peptides were administered intranasally to the brain parenchyma of adult rats. Subsequently, the noradrenergic neurons located in the locus coeruleus, a brain region responsible for the central control of the functionality of the sympathetic nervous system, were analysed by immunolabelling on thin slices for tyrosine hydroxylase enzyme. Tyrosine hydroxylase enzyme represents an indirect measurement of the production of the noradrenaline neurotransmitter in neurons of certain brain areas. […]

PC12 cells [2] = test: PC12 cell neuronal differentiation test; type: cell-based, rat; details: serum-free medium, 50 ng/ml mNGF or 100 ng/ml hproNGF-A or hproNGF-B, five-day incubation
PC12 cells [3] = test: Viability test on PC12 cells in suspension after serum deprivation; type: cell-based, rat; details: 48 hours of culture, 50 ng/ml mNGF or 100 ng/ml hproNGF-A or hproNGF-B
Experimental: FIG. 3B is a histogram showing the results from the viability test performed on PC12 cells in suspension after addition of the factors listed under A above.
PC12 cells were cultured in RPMI 1640 culture medium supplemented with 10% horse serum and 5% calf serum in a humidified atmosphere with 5% CO2 at 37° C. The exponentially growing cells were then seeded on 6-well plates containing poly-L-Lysine, to allow adherence of the cells to the bottom of the well.

[4] = system: hippocampal cells of the dentate gyrus (granule layer and hilus); test: Hoechst-positive cell count in hippocampal dentate gyrus after intranasal administration; type: in vivo, rat; details: control (healthy) rats, intranasal once a day for four days
Experimental: The broken lines show regions of the Dentate Gyrus (DG-H and DG-Granule Layer) where cell counts were performed, shown in the graphs in FIG. 4B.
To check whether the opposite nature of the two different hproNGF isoforms could affect the number of hippocampal cells and whether the intranasal administration of proNGF could have an effect on diabetes-induced neuronal loss, Hoechst-positive cells were analysed by confocal microscopy in both the cell layers of the hippocampal dentate gyrus, the granule layer (GL) and the hilus (HL) (as shown in FIG. 4A). The rats were deeply anesthetized and transcardially perfused with 0.1 M phosphate buffer followed by 4% paraformaldehyde fixative in 0.1 M phosphate buffer. The brains were removed and cryoprotected with 30% sucrose in phosphate buffer. 40 μm-thick coronal sections of both hemispheres. ranging −2.40 /−3.72 mm from the bregma according to the Paxinos Rat Brain Atlas, were cut on a cryostat and then processed. The brain sections were pre-incubated for 2 hours at room temperature (RT) with PBS containing 10% donkey serum (v/v), 1% BSA (w/v) and 0.3% Triton X-100 (v/v). After washing with PBS, the sections were incubated (2 h, RT) with specific secondary antibodies. Subsequently, the sections were rinsed three times in PBS and incubated for 10 minutes with Hoechst dye for specific staining of the nuclei. […]

[5] = system: hippocampal dentate gyrus neurogenesis; test: Hippocampal neurogenesis (BrdU, DCX, NeuN confocal microscopy) after intranasal administration; type: in vivo, rat
Excerpt: The box-plot graphs enclosed by a broken line show the results from the quantitative analyses in healthy rats (A) and diabetic rats (B) of cells that have incorporated BrdU and are at the same time positive for Doublecortin (DCX) (graphs enclosed by a dashed line box) or NeuN (graphs enclosed by a dotted line box). Median±interquartile, n=4 animals per experimental group.
It is also known that diabetic encephalopathy impairs the hippocampal neurogenesis process. In order to assess the effects induced by exogenous administration of the two hproNGF peptide isoforms on hippocampal neurogenesis, the hproNGF-A peptide for use according to the invention and the known hproNGF-B peptide were administered to healthy and diabetic rats.
In order to assess the effects of the treatments on dentate gyrus neurogenesis, at the time of diabetes induction, rats were inoculated with bromodeoxyuridine (BrdU), which intercalates into newly formed DNA, specifically labelling cells proliferating at the time of inoculation. Subsequently, a confocal microscopy analysis was performed by labelling with anti-BrdU antibodies and specific antibodies to detect the presence of immature neurons (antibodies to doublecortin, DCX) or mature neurons (antibodies to NeuN).

[6] = system: hippocampal synaptic plasticity (DG-LTP); test: Long-term potentiation (LTP) in dentate gyrus of hippocampal slices after intranasal administration; details: intranasal once a day for four days, 60 minutes after HFS

Substance	time the peptide remains in the culture medium after the stimulus (extracellular proteases)	arborization (sprouting) of noradrenergic fibres containing tyrosine hydroxylase in the locus coeruleus [1]	neuronal differentiation of PC12 cells (neurites) (PC12 cells [2])	percentage of living cells (PC12 cells [3])	number of cells in hilus and granule layer of dentate gyrus compared to saline-treated rats [4]	diabetes-induced alteration in the number of BrdU+-cells ([5]; diabetic rats)	percentage of BrdU+-cells expressing DCX ([5]; diabetic rats)	number of BrdU-immunopositive cells ([5]; healthy rats)	percentage of cells simultaneously immunopositive for BrdU and DCX ([5]; healthy rats)	extent of DG-LTP compared to saline-treated group ([6]; control groups (healthy animals)) [%]	DG-LTP compared to saline-treated diabetic rats (improvement of streptozotocin-induced decrease) ([6]; diabetic rats (streptozotocin))
mNGF: mature Nerve Growth Factor (NGF) peptide, neurotrophin used as comparator	not more than 8 hours	causes arborization (sprouting) of the noradrenergic fibres	exhibited the characteristic extensions (neurites)	maintain a significant proportion of living cells							
hproNGF-B: already known human proNGF variant (accession number NM_002506.2), precursor of mature NGF, 221 amino acids long			showed evident signs of suffering	induces a decrease in the percentage of living cells	decreased significantly	no influence	no influence	significant reduction	significant reduction	28	not different from that measured in saline-treated diabetic rats
